Assays:
Format in all cases: cell-based, human
SKOV3 [1] = test: Matrigel invasion assay
Experimental: (§1) The invasiveness of SKOV3 and OVCAR3 transduced or not with Ad-GFP or Ad-GFP-SPARC as described in Example 1, in response to MCP-1, was assessed as previously described (Said et al., Am J Pathol, 167: 1739-52 (2005)). 1×10^5 cells per […] in the presence and absence of MCP-lwere added to the upper chamber of polycarbonate inserts ([…] pore size, Corning Costar, Corning, N.Y.) coated on ice with Growth factor—reduced Matrigel (BD Biosciences, Bedford, Mass.) diluted 1:3 in SFM. In some experiments, cells were pretreated with MCP-1 antibody (25 µg/ml) or its isotype control (50 μg/ml) for 30 minutes before stimulation. The bottom chambers contained complete growth medium. […] The migrated cells were counted in six fields after staining with hemacolor 3 stain (SOURCE?), using an inverted microscope equipped with a DFC 320 digital camera (Leica Microsystems, Wetzlar, Germany) under 200× magnification.
(§2) The proliferation and invasiveness of SKOV3 and OVCAR3 cells, transduced or not with Ad-GFP and Ad-GFP-SPARC, in response to PGE2, was determined as described in Example 3. The results shown in FIG. 5 are expressed as the mean±SEM of three independent experiments performed in quadruplicate (proliferation) or triplicate (invasion). *P<0.05, compared to the matched WT cells or Ad-GFP transduced cells. **P<0.05, compared to NS control cells.

OVCAR3 [2] = test: Matrigel invasion assay
Experimental: as §1, §2

NF-κB promoter = NF-κB promoter luciferase reporter assay; settings: SKOV3 and OVCAR3, concentration-dependent up to 5 nM
SKOV3 [3] = test: Proliferation, CellTiter96 (MTS)
Experimental: (§3) The proliferation of SKOV3 and OVCAR3 transduced or not with Ad-GFP or Ad-GFP-SPARC as described in Example 1, in response to MCP-1, was assessed using a commercially available CellTiter96 kit (Promega) according to the manufacturer' instructions. The number of proliferating cells was determined colorimetrically by measuring the absorbance at 590 nm (0D590) of the dissolved formazan product after the addition of 3 -(4,5 -dimethylthiazol-2-yl)-5-(3 -carboxymethoxyphenyl)-2-(4-sulfophenyl)-2H-tetrazolium (MTS) for 3 hours.
as §2

OVCAR3 [4] = test: Proliferation, CellTiter96 (MTS)
Experimental: as §3, §2

8-isoprostane = 8-isoprostane level in conditioned medium, enzyme immunoassay
Experimental: SKOV3 and OVCAR3 were treated as described in Example 6, and the level of 8-isoprostane was determined in the CM using a commercially available enzyme immunoassay kit (Cayman Inc.) according to the manufacturer's instructions.

uPA = uPA activity in conditioned medium, colorimetric assay; settings: for inhibition of LPA-induced uPA activity: 24 hours
Experimental: uPA activity in CM of confluent monolayers (˜10^6 cells) of serum-starved SKOV3 and OVCAR3 was measured in WT cells stimulated for 24 hours with LPA (50 μM) in the presence and absence of SPARC (10 μg/ml). uPA activity in adenovirus-transduced SKOV3 and OVCAR3 stimulated or not with LPA, or cocultured with Meso301 monolayers, U937 macrophages (added in 0.22-μm transwell inserts), or in triple-culture systems was also measured. uPA activity in CM was measured using a commercially available colorimetric assay kit (Chemicon) according to the manufacturer's instructions. […] The results are mean±SEM of a representative of three independent experiments, each performed in duplicate. *P<0.05, compared to nonstimulated WT or Ad-GFP cells. **P<0.05, compared to matched WT or Ad-GFP condition. #P<0.05, compared to coculture of ovarian cancer cells with either Meso301 or U937 in two-cell culture systems.

MCP-1 = MCP-1 protein secreted in conditioned medium, ELISA; settings: 50 μM LPA
Experimental: Ovarian cancer cell lines were transduced for 24 hours with adenovirus expressing GFP (Ad-GFP) or adenovirus expressing GFP and SPARC (Ad-GFP-SPARC) in complete growth medium at a multiplicity of infection of 15 to 25 as described previously (Said et al., Am J Pathol, 170: 1054-63 (2007)).
Confluent monolayers (−106 cells, serum starved overnight) of wild type (WT) human ovarian cancer cell lines SKOV3 or OVCAR3, were stimulated with 50 μM lysophosphatidic acid (LPA) for 24 hours in the presence and absence of SPARC (10 μg/ml). Similarly, adenovirus-transduced SKOV3 and OVCAR3 were stimulated with 50 [M LPA for 24 to 48 hours. Alternatively, adenovirus-transduced SKOV3 and OVCAR3 were seeded onto confluent monolayers or cocultured with Meso301 for 24 to 48 hours. MCP-1 protein secreted in the conditioned medium (CM) of SKOV3 and OVCAR3 was determined by ELISA using a commercially available kit (RayBioTech, Inc., Norcross, Ga.). Controls included cells that were not stimulated (NS) with LPA.

MMP-2 and MMP-9 = test: Gelatin zymography of conditioned media
Experimental: Subconfluent monolayers of ovarian cancer cells, transduced or not with Ad-GFP and Ad-GFP-SPARC, were grown in six-well plates alone or in coculture with mesothelial cell monolayers and serum-starved in SFM overnight. U937 macrophages (2×10^6 cells/ml SFM) were cultured in 0.22-μm transwell chambers (Corning, Costar) alone, in cocultures without direct cell-cell contact with ovarian cancer cells, or in triple cultures with ovarian cancer cells and mesothelial cells for an additional 24 hours. LPA (50 μM) or exogenous SPARC (20 μg/ml) (SOURCE?) was included in some experiments. Cell culture conditioned media (CM) were collected, cleared by centrifugation, and concentrated five-fold using Centricon centrifugal filters (Millipore, Bedford, Mass.). […] CM equivalent to 200 μg of ovarian cancer cells, and/or U937 cells was analyzed by gelatin zymography as described previously (Said et al., Am J Pathol, 167: 1739-52 (2005)).

PGE2 = PGE2 level in conditioned medium, enzyme immunoassay
Experimental: LPA (50 μM) or exogenous SPARC (20 μg/ml) (SOURCE?) was included in some experiments.
SKOV3 and OVCAR3 cells were treated as described in Example 6, and PGE2 level was determined in the CM using a commercially available enzyme immunoassay kit (Cayman Inc.) according to the manufacturer's instructions.

IL-6 = IL-6 in conditioned medium, ELISA; settings: U937
Experimental: SKOV3 and OVCAR3 cells, transduced or not with Ad-GFP or Ad-GFP-SPARC, and U937 cells were cultured individually, in cocultures, or in triple cultures with Meso301 cells for twenty four hours, and the conditioned medium was assayed for IL-6 by ELISA as described in Example 1. The results shown in FIG. 3 represent the mean±SEM of one of three independent experiments, each performed in duplicate. *P<0.05, compared to matched WT or Ad-GFP. **P<0.05, compared to double cultures in the absence of mesothelial cells.

[5] = either cell line (SKOV3, OVCAR3)

Molecule: CCCCC[C@H](O)/C=C/[C@H]1[C@H](O)CC(=O)[C@@H]1C/C=C\CCCC(=O)O [PGE2, prostaglandin E2]
- proinvasive effect of PGE2 (SKOV3 [1]): concentration dependent
- proinvasive effect of PGE2 (OVCAR3 [2]): concentration dependent
- PGE2-induced NF-κB activation (NF-κB promoter): approximately three
- PGE2-stimulated proliferation (SKOV3 [3]): concentration dependent
- PGE2-stimulated proliferation (OVCAR3 [4]): concentration dependent

Molecule: lysophosphatidic acid [LPA]
- increase in 8-isoprostane production by LPA stimulation (8-isoprostane; OVCAR): ~2.5 fold
- increase in 8-isoprostane production by LPA stimulation (8-isoprostane; SKOV3): ~2.2 fold
- LPA-induced increase in uPA activity (uPA; WT and Ad-GFP-transduced OVCAR3, LPA 50 μM): 4.5 fold
- LPA-induced increase in uPA activity (uPA; WT and Ad-GFP-transduced SKOV3, LPA 50 μM): 4 fold
- increase of MCP-1 production after LPA stimulation (MCP-1; SKOV3 and OVCAR3, 48 hours): nine
- levels of active MMP-9 after LPA stimulation (MMP-2 and MMP-9; OVCAR3 CM, LPA 50 μM): significantly increased
- levels of pro- and active MMP-9 after LPA stimulation (MMP-2 and MMP-9; SKOV3 CM, LPA 50 μM): significantly increased
- MMP-2 and MMP-9 activity after LPA (MMP-2 and MMP-9; U937 CM, LPA 50 μM): significantly increased
- increase in PGE2 production by LPA stimulation (PGE2; SKOV3 and OVCAR): 14 fold

B1: Secreted protein acidic and rich in cysteine (protein, listed as Homo sapiens)
chain: APQQEALPDETEVVEETVAEVTEVSVGANPVQVEVGEFDDGAEETEEEVVAENPCQNHHCKHGKVCELDENNTPMCVCQDPTSCPAPIGEFEKVCSNDNKTFDSSCHFFATKCTLEGTKKGHKLHLDYIGPCKYIPPCLDSELTEFPLRMRDWLKNVLVTLYERDEDNNLLTEKQKLRVKKIHENEKRLEAGDHPVELLARDFEKNYNMYIFPVHWQFGQLDQHPIDGYLSHTELAPLRAPLIPMEHCTTRFFETCDLDNDKYIALDEWAGCFGIKQKDIDKDLVI
notes: matrix-associated protein added to cultures at 10 or 20 μg/ml
- suppression of LPA-induced 8-isoprostane production (8-isoprostane; [5]): up to 26%
- decrease of basal 8-isoprostane (ROS) production (8-isoprostane; serum starved SKOV3 and OVCAR3): 70%
- effect on IL-6 levels (IL-6): Neither exogenous SPARC nor overexpression of SPARC in U937 had any effect
- attenuation of constitutive uPA activity in CM (uPA; OVCAR3): 29%
- inhibition of LPA-induced uPA activity (uPA; OVCAR3, LPA 50 μM): 36%
- attenuation of constitutive uPA activity in CM (uPA; SKOV3): 40%
- inhibition of LPA-induced uPA activity (uPA; SKOV3, LPA 50 μM): 76%
- inhibition of LPA-induced MCP-1 production (MCP-1; OVCAR3, 24 hours): 59%
- inhibition of LPA-induced MCP-1 production (MCP-1; OVCAR3, 48 hours): 30%
- inhibition of LPA-induced MCP-1 production (MCP-1; SKOV3, 24 hours): 54%
- inhibition of LPA-induced MCP-1 production (MCP-1; SKOV3, 48 hours): 43%
- LPA-induced activity of MMP-2 and MMP-9 (MMP-2 and MMP-9; U937 CM, SPARC 20 μg/ml): markedly decreased
- suppression of LPA-induced PGE2 production (PGE2; [5]): 40%
- decrease of baseline production of PGE2 (PGE2; serum-starved SKOV3 and OVCAR3): up to 30%
